According to article PMC9033141, “Beta and Gamma Amino Acid-Substituted Benzenesulfonamides as Inhibitors of Human Carbonic Anhydrases” (Pharmaceuticals, 2022):
pKd: −log10 of the molar value. Values joined by “and” are separate entries in the source; they are usually repeats but may differ in a detail not shown here. Equal values may be shown once. Read-outs that look alike come from different tables or passages of the source.

What was measured:
CAI = biological target: T1, CAI (Homo sapiens, UniProt P00915); experiment: biochemical; format: binding; details: FTSA
T1 construct: made in house; host or cells: E. coli
T1 sequence (P00915 whole entry): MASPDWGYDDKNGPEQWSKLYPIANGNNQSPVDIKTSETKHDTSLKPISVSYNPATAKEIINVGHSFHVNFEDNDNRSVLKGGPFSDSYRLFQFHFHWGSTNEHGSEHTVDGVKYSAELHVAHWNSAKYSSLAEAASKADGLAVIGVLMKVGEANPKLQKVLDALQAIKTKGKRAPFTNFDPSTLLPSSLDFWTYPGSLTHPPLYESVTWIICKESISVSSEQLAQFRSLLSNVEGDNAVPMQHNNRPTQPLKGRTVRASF

CAXIII = CAXIII (Homo sapiens, UniProt Q8N1Q1); experiment: biochemical; details: FTSA;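 further: recombinant human CAXIII melting temperature tracked by ANS fluorescence in thermal shift assay, Tm fitted against ligand concentration, intrinsic value corrects Kd for deprotonated sulfonamide and Zn-bound water fractions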
Chain of CAXIII (Q8N1Q1 whole entry): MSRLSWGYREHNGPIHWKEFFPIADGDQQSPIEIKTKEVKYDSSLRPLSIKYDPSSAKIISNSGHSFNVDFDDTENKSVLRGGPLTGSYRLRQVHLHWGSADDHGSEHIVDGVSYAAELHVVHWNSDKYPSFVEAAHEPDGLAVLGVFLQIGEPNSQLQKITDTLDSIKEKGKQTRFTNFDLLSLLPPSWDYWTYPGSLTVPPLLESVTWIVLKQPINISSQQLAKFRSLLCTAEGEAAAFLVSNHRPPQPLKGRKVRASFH
Experimental: Human CA isozymes were expressed in E. coli (CAI, II, III, IV, VA, VB, VII, XII, XIII, XIV) or mammalian cells (CAVI and CAIX), chromatographically purified following the published protocols [47], and stored at −80 °C. The protein concentration was determined by UV absorption at 280 nm using Beer–Lambert law.
The QIAGEN Rotor-Gene Q was used to carry out the experiments, with a blue channel used for excitation (365 nm) and detection (460 nm). FTSA in this case relies on an extrinsic probe, 8-anilino-1-naphthalenesulfonate (ANS), to detect the fluorescence increase during protein denaturation, from which protein melting temperature (Tm) can be determined. […] The observed affinity of ligands for CAs was determined by plotting the Tm as a function of ligand concentration and then fitting a curve as described previously [48]. […] Samples were heated from 25 °C to 99 °C at the speed of 1 °C/min.
The intrinsic thermodynamic parameters were calculated as described in [40]. The intrinsic reaction of inhibitor binding to CA is shown in Equation (1).
When calculating Kd_int values, these protein and ligand fractions from Equation (1) have to be accounted for (Equations (2) and (3)). The intrinsic dissociation constant is calculated by multiplying Kd_obs value by the corresponding fractions of protein and ligand (Equation (4)). (2) fRSO2NH^−=10^pH−pKa_RSO2NH2/1+10^pH−pKa_RSO2NH2 (3) fCAZnH2O=1−10^pH−pKa_CAZnH2O/1+10^pH−pKa_CAZnH2O (4) Kd_int=Kd_obs×fRSO2NH^−×fCAZnH2O (5) ΔGint0=RTlnKd_int
The intrinsic standard Gibbs energy changes upon binding were calculated using Equation (5). Here, R—universal ideal gas constant (8.3144 J/mol·K), T—absolute temperature (310.15 K).

CAII = biological target: T2, CAII (Homo sapiens, UniProt P00918); experiment: biochemical; format: binding; details: FTSA;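 further: recombinant human CAII, thermal shift with ANS dye fluorescence, Kd_obs from fitting melting temperature versus ligand concentration, intrinsic values corrected for deprotonated sulfonamide and Zn-bound water fractions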
T2 construct: made in house; host or cells: E. coli

CAXII = biological target: T3, CAXII (Homo sapiens, UniProt O43570); experiment: biochemical; format: binding; details: FTSA
T3 construct: made in house; host or cells: E. coli
T3 sequence (O43570 25-354): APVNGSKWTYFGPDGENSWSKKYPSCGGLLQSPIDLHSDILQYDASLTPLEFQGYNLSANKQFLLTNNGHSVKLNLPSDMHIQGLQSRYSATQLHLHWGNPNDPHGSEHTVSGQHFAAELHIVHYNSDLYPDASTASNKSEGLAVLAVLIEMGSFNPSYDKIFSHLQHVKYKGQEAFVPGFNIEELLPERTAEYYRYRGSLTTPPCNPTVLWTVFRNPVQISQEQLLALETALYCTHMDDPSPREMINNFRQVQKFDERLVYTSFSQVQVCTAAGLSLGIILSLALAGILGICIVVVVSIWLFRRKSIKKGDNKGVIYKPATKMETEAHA

CAIX = biological target: T4, CAIX (Homo sapiens, UniProt Q16790); experiment: biochemical; format: binding; details: FTSA
T4 construct: made in house

[1] = pH 7.0, 37 °C, read-out: Observed Dissociation Constant (Kd_obs), CAI
[2] = Observed Dissociation Constant (Kd_obs), pH 7.0, 37 °C
[3] = pH 7.0, 37 °C, read-out: Observed Dissociation Constant (Kd_obs), CAII
[4] = pH 7.0, 37 °C, read-out: Observed Dissociation Constant (Kd_obs), CAXII
[5] = pH 7.0, 37 °C, read-out: Observed Dissociation Constant (Kd_obs), CAIX
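Wherever Observed Dissociation Constant (Kd obs), CAXII is given: recombinant CAXII made in E. coli, ANS-fluorescence thermal shift with affinity fitted from Tm versus ligand concentration, intrinsic energy from Kd_obs corrected for deprotonated sulfonamide and Zn-water fractions.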

Structure (SMILES)	pKd (CAI; [1])	pKd (CAI; read-out: Kd_obs, CAI)	pKd (CAXIII; Kd_obs)	pKd (CAXIII; [2])	pKd (CAII; [3])	pKd (CAII; read-out: Kd_obs, CAII)	melting point [°C]	pKd (CAXII; [4])	pKd (CAXII; read-out: Kd_obs, CAXII)	pKd (CAIX; [5])	pKd (CAIX; read-out: Kd_obs, CAIX)
NNC(=O)CC(CNc1ccc(S(N)(=O)=O)cc1)C(=O)NN (stereo not shown) [Compound 2a, 4-((2-(Hydrazinecarbonyl)-4-hydrazineyl-4-oxobutyl)amino)benzenesulfonamide]	4.11	3.89 to 6.08	3.89 to 6.08	3.89	4.85	3.89 to 6.08	164 to 165	4.15	3.89 to 6.08	5.40	3.89 to 6.08
NNC(=O)CC(CNc1ccc(S(N)(=O)=O)cc1Cl)C(=O)NN (stereo not shown) [Compound 2b, 3-Chloro-4-((2-(hydrazinecarbonyl)-4-hydrazineyl-4-oxobutyl)amino)benzenesulfonamide]	5.17	3.89 to 6.08	3.89 to 6.08	5.17	5.89	3.89 to 6.08		4.85	3.89 to 6.08	6.08	3.89 to 6.08 and 6.08
CC(C)=NNC(=O)CC(CNc1ccc(S(N)(=O)=O)cc1)C(=O)NN=C(C)C (stereo not shown) [Compound 3a, 4-((4-Oxo-2-(2-(propan-2-ylidene)hydrazine-1-carbonyl)-4-(2-(propan-2-ylidene)hydrazineyl)butyl)amino)benzenesulfonamide]	3.77			4.00	4.89			3.96		5.17	
CC(C)=NNC(=O)CC(CNc1ccc(S(N)(=O)=O)cc1Cl)C(=O)NN=C(C)C (stereo not shown) [Compound 3b, 3-Chloro-4-((4-oxo-2-(2-(propan-2-ylidene)hydrazine-1-carbonyl)-4-(2-(propan-2-ylidene)hydrazineyl)butyl)amino)benzenesulfonamide]	5.00			5.17	5.74			4.85		6.17	
CCC(C)=NN1C(=O)CC(CNc2ccc(S(N)(=O)=O)cc2)C1=O (stereo not shown) [Compound 4a, 4-(((1-(Butan-2-ylideneamino)-2,5-dioxopyrrolidin-3-yl)methyl)amino)benzenesulfonamide]	4.74			4.70	4.40		117 to 118	4.74		5.70	
CCC(C)=NN1C(=O)CC(CNc2ccc(S(N)(=O)=O)cc2Cl)C1=O (stereo not shown) [Compound 4b, 4-(((1-(Butan-2-ylideneamino)-2,5-dioxopyrrolidin-3-yl)methyl)amino)-3-chlorobenzenesulfonamide]	5.54			5.89	6.48		92 to 93	5.40		6.60	
CC(=NNC(=O)CC(CNc1ccc(S(N)(=O)=O)cc1)C(=O)NN=C(C)c1ccccc1)c1ccccc1 (stereo not shown) [Compound 5a, 4-((4-Oxo-2-(2-(1-phenylethylidene)hydrazine-1-carbonyl)-4-(2-(1-phenylethylidene)hydrazineyl)butyl)amino)benzenesulfonamide]	5.08			5.30	5.89		162 to 163	6.30		6.23	
CC(=NNC(=O)CC(CNc1ccc(S(N)(=O)=O)cc1Cl)C(=O)NN=C(C)c1ccccc1)c1ccccc1 (stereo not shown) [Compound 5b, 3-Chloro-4-((4-oxo-2-(2-(1-phenylethylidene)hydrazine-1-carbonyl)-4-(2-(1-phenylethylidene)hydrazineyl)butyl)amino)benzenesulfonamide]	5.40			6.40	6.60		158 to 159	5.17		6.74	
NS(=O)(=O)c1ccc(NCC(CC(=O)NN=Cc2ccccc2)C(=O)NN=Cc2ccccc2)cc1 (stereo not shown) [Compound 6a, 4-((2-(2-(Benzylidene)hydrazine-1-carbonyl)-4-(2-(benzylidene)hydrazineyl)-4-oxobutyl)amino)benzenesulfonamide]	4.85			5.11	5.74		208 to 209	4.60		6.25	
NS(=O)(=O)c1ccc(NCC(CC(=O)NN=Cc2ccccc2O)C(=O)NN=Cc2ccccc2O)cc1 (stereo not shown) [Compound 7a, 4-((2-(2-(2-Hydroxybenzylidene)hydrazine-1-carbonyl)-4-(2-(2-hydroxybenzylidene)hydrazineyl)-4-oxobutyl)amino)benzenesulfonamide]	5.17			5.00	5.70		177 to 178	4.70		6.30	
NS(=O)(=O)c1ccc(NCC(CC(=O)NN=Cc2ccccc2O)C(=O)NN=Cc2ccccc2O)c(Cl)c1 (stereo not shown) [Compound 7b, 3-Chloro-4-((2-(2-(2-hydroxybenzylidene)hydrazine-1-carbonyl)-4-(2-(2-hydroxybenzylidene)hydrazineyl)-4-oxobutyl)amino)benzenesulfonamide]	6.00			6.77	6.77		204 to 205	5.30		7.17	
NS(=O)(=O)c1ccc(NCC(CC(=O)NN=Cc2cccc(O)c2)C(=O)NN=Cc2cccc(O)c2)cc1 (stereo not shown) [Compound 8a, 4-((2-(2-(3-Hydroxybenzylidene)hydrazine-1-carbonyl)-4-(2-(3-hydroxybenzylidene)hydrazineyl)-4-oxobutyl)amino)benzenesulfonamide]	5.00			5.30	5.70		192 to 193	4.48		6.17	
NS(=O)(=O)c1ccc(NCC(CC(=O)NN=Cc2cccc(O)c2)C(=O)NN=Cc2cccc(O)c2)c(Cl)c1 (stereo not shown) [Compound 8b, 3-Chloro-4-((2-(2-(3-hydroxybenzylidene)hydrazine-1-carbonyl)-4-(2-(3-hydroxybenzylidene)hydrazineyl)-4-oxobutyl)amino)benzenesulfonamide]	6.00			6.70	6.60		119 to 120	4.70		7.00	
NS(=O)(=O)c1ccc(NCC(CC(=O)NN=Cc2ccc(O)cc2)C(=O)NN=Cc2ccc(O)cc2)cc1 (stereo not shown) [Compound 9a, 4-((2-(2-(4-Hydroxybenzylidene)hydrazine-1-carbonyl)-4-(2-(4-hydroxybenzylidene)hydrazineyl)-4-oxobutyl)amino)benzenesulfonamide]	5.23			5.37	5.89		186 to 187	4.60		6.30	
NS(=O)(=O)c1ccc(NCC(CC(=O)NN=Cc2ccccc2Cl)C(=O)NN=Cc2ccccc2Cl)cc1 (stereo not shown) [Compound 10a, 4-((2-(2-(2-Chlorobenzylidene)hydrazine-1-carbonyl)-4-(2-(2-chlorobenzylidene)hydrazineyl)-4-oxobutyl)amino)benzenesulfonamide]	4.77			5.77	5.60		174 to 175	4.30		6.30	
NS(=O)(=O)c1ccc(NCC(CC(=O)NN=Cc2ccccc2Cl)C(=O)NN=Cc2ccccc2Cl)c(Cl)c1 (stereo not shown) [Compound 10b, 3-Chloro-4-((2-(2-(2-chlorobenzylidene)hydrazine-1-carbonyl)-4-(2-(2-chlorobenzylidene)hydrazineyl)-4-oxobutyl)amino)benzenesulfonamide]	5.77			6.89	6.48		203 to 204	4.30		6.89	
NS(=O)(=O)c1ccc(NCC(CC(=O)NN=Cc2cccc(Cl)c2)C(=O)NN=Cc2cccc(Cl)c2)cc1 (stereo not shown) [Compound 11a, 4-((2-(2-(3-Chlorobenzylidene)hydrazine-1-carbonyl)-4-(2-(3-chlorobenzylidene)hydrazineyl)-4-oxobutyl)amino)benzenesulfonamide]	4.70			5.30	5.48		190 to 191	4.00		6.00	
NS(=O)(=O)c1ccc(NCC(CC(=O)NN=Cc2cccc(Cl)c2)C(=O)NN=Cc2cccc(Cl)c2)c(Cl)c1 (stereo not shown) [Compound 11b, 3-Chloro-4-((2-(2-(3-chlorobenzylidene)hydrazine-1-carbonyl)-4-(2-(3-chlorobenzylidene)hydrazineyl)-4-oxobutyl)amino)benzenesulfonamide]	5.60			6.48	6.48		175 to 176	4.48		6.89	
NS(=O)(=O)c1ccc(NCC(CC(=O)NN=Cc2ccc(Cl)cc2)C(=O)NN=Cc2ccc(Cl)cc2)cc1 (stereo not shown) [Compound 12a, 4-((2-(2-(4-Chlorobenzylidene)hydrazine-1-carbonyl)-4-(2-(4-chlorobenzylidene)hydrazineyl)-4-oxobutyl)amino)benzenesulfonamide]	4.44			4.77	5.30		179 to 180	4.18		6.00	
NS(=O)(=O)c1ccc(NCC(CC(=O)NN=Cc2ccc(Cl)cc2)C(=O)NN=Cc2ccc(Cl)cc2)c(Cl)c1 (stereo not shown) [Compound 12b, 3-Chloro-4-((2-(2-(4-chlorobenzylidene)hydrazine-1-carbonyl)-4-(2-(4-chlorobenzylidene)hydrazineyl)-4-oxobutyl)amino)benzenesulfonamide]	5.17			5.82	5.96		211 to 212	4.24		6.17	
